Literature values in patent publication US11633460B2, “Injectable solution at pH 7 comprising at least one basal insulin wherein the pI is comprised from 5.8 to 8.5 and a co-polyamino acid bearing carboxylate charges and hydrophobic radicals” (ADOCIA, priority 2017, dated 2023).

Conditions: patients, background statement

insulin glargine
Period over which the hypoglycemic effect is quasi-constant: 24 h
